In one assay the target is T1, CDK9/cyclinT1 (Homo sapiens, UniProt P50750).
T1 construct: purchased Millipore
Kind of assay: CDK9/cyclinT1 kinase assay, IMAP fluorescence polarization. The class given is biochemical. The method, then:
(§1) Kinase assays were performed on recombinant purified enzymes using the non-radioactive IMAP fluorescence polarization assay format.
(§2) Compound stocks were prepared and diluted in DMSO and were added to kinase reactions at a 1/100 dilution for a final concentration of 1% DMSO. The components were added together to final concentrations listed in the tables below and incubated for two hours at room temperature.
(§3) The reactions were stopped by addition of stop solution.
CDK9/CDK1/CDK7: final stop concentration is 1× Developer buffer (85% A/15% B), IMAP beads 1/400
The samples were allowed to incubate for one more hour at room temperature and then the fluorescence polarization was measured. The plate normalized millipolarization (mP) values were plotted against the log of compound concentration for each compound and IC50 values were calculated using the spotfire IC50 calculator and confirmed by visual analysis.
(In general: Fluorescence polarisation rises when a labelled molecule tumbles more slowly, as on binding a larger partner.)

For the next assay, the target named is T2, CDK1/cyclinB (Homo sapiens, UniProt P06493).
T2 construct: purchased Millipore
T2 sequence (P06493 whole entry): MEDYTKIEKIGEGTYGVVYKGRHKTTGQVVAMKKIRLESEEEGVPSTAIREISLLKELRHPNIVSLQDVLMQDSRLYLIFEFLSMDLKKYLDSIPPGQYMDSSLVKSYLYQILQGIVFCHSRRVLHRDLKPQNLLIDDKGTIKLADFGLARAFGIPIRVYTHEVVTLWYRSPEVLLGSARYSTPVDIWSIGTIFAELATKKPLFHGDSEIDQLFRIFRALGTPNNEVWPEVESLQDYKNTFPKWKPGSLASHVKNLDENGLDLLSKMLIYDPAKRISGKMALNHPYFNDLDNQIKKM
T2 sequence (P14635 whole entry partner): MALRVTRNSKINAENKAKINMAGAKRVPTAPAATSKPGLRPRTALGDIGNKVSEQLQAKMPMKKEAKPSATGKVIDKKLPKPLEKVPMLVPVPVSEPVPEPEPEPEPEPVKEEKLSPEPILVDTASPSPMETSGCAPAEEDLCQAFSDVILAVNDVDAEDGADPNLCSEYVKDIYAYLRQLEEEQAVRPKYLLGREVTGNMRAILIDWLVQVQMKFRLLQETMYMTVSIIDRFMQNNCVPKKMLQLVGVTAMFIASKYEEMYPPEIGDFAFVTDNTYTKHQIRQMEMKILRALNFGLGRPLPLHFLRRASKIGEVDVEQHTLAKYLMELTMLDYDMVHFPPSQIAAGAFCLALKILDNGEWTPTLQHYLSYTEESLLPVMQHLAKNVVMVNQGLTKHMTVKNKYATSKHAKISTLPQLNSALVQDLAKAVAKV
Kind of assay: CDK1/cyclinB kinase assay, IMAP fluorescence polarization. The assay is classed as biochemical. The conditions noted are these: read-out: CDK1 IC50. The method, then:
as §1, §2, §3
The samples were allowed to incubate for one more hour at room temperature and then the fluorescence polarization was measured.

This note sets out measurements from US20100048597A1 (Novartis AG, priority 2006, published 2010).

T1 sequence (P50750 whole entry): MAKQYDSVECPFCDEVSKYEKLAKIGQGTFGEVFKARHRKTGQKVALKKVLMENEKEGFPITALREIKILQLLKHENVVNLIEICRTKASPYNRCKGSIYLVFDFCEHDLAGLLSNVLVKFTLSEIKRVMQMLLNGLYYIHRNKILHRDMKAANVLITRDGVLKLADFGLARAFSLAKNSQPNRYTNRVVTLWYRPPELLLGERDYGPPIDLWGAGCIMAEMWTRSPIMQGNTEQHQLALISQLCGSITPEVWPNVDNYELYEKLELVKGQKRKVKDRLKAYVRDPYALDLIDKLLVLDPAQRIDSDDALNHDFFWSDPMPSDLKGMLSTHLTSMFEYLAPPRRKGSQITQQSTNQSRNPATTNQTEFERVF
T1 sequence (O60563 whole entry partner): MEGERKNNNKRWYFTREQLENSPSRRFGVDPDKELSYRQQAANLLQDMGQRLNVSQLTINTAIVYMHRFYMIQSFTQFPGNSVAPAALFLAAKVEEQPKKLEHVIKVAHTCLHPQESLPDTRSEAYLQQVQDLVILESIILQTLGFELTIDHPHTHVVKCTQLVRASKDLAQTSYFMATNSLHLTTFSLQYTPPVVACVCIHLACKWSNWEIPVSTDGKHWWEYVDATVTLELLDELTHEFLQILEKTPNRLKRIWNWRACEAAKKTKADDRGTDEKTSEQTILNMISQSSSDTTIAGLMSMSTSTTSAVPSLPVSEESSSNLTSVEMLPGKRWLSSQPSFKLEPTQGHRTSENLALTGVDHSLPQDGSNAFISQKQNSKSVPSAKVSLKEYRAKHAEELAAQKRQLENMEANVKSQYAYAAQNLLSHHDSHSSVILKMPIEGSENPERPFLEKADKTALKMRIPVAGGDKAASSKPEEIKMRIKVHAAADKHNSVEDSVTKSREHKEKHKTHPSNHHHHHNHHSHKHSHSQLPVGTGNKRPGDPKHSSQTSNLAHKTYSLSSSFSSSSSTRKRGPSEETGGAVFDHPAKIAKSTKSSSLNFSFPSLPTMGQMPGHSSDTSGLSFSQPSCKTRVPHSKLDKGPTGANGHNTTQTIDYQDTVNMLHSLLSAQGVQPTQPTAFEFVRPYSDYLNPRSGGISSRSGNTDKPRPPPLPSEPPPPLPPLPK

As usually defined, the IC50 is the concentration at which inhibition is half-maximal. Turning to `Cc1c(-c2ccnc(Nc3cccc(Cl)c3)n2)ccnc1NCCCN` [Compound 4, N-{4-[2-(3-Chloro-phenylamino)-pyrimidin-4-yl]-3-methyl-pyridin-2-yl}-propane-1,3-diamine], the IC50 at CDK9/cyclinT1 and at CDK1/cyclinB was below 5 µM each time.

For the molecule `CCc1c(-c2ccnc(Nc3cccc(Cl)c3)n2)ccnc1NCCCN` [Compound 5, N-{4-[2-(3-Chloro-phenylamino)-pyrimidin-4-yl]-3-ethyl-pyridin-2-yl}-propane-1,3-diamine], the IC50 against CDK9/cyclinT1 and at CDK1/cyclinB was below 5 µM throughout.

As for `CCc1c(-c2ccnc(Nc3cccc(Cl)c3)n2)ccnc1NCCCNC(C)=O` [Compound 7, N-(3-{4-[2-(3-Chloro-phenylamino)-pyrimidin-4-yl]-3-ethyl-pyridin-2-ylamino}-propyl)-acetamide], the IC50 against CDK9/cyclinT1 and on CDK1/cyclinB was below 5 µM each time.

In the case of `Cc1c(-c2ccnc(N(C)c3cccc(Cl)c3)n2)ccnc1NCCCN` [Compound 8, N-(4-{2-[(3-Chloro-phenyl)-methyl-amino]-pyrimidin-4-yl}-3-methyl-pyridin-2-yl)-propane-1,3-diamine], the IC50 on CDK9/cyclinT1 lay within 5 to 15 µM; on CDK1/cyclinB, 15 to 50 µM.

In the case of `CNCCCN(C)c1nccc(-c2ccnc(Nc3cccc(Cl)c3)n2)c1C` [Compound 9, N-{4-[2-(3-Chloro-phenylamino)-pyrimidin-4-yl]-3-methyl-pyridin-2-yl}-N,N′-dimethyl-propane-1,3-diamine], the IC50 on CDK9/cyclinT1 and at CDK1/cyclinB was below 5 µM each time.

As to `CC(=O)N(C)CCCN(C)c1nccc(-c2ccnc(Nc3cccc(Cl)c3)n2)c1C` [Compound 10, N-[3-({4-[2-(3-Chloro-phenylamino)-pyrimidin-4-yl]-3-methyl-pyridin-2-yl}-methyl-amino)-propyl]-N-methyl-acetamide], the IC50 was below 5 µM against CDK9/cyclinT1 and 5 to 15 µM on CDK1/cyclinB.

On to `CNCCCN(C)c1nccc(-c2ccnc(N(C)c3cccc(Cl)c3)n2)c1C` [Compound 11, N-(4-{2-[(3-Chloro-phenyl)-methyl-amino]-pyrimidin-4-yl}-3-methyl-pyridin-2-yl)-N,N′-dimethyl-propane-1,3-diamine], for which the IC50 against CDK9/cyclinT1 was above 50 µM; at CDK1/cyclinB, 15 to 50 µM.

Consider `CC(=O)NCCCNc1nccc(-c2ccnc(N(C)c3cccc(Cl)c3)n2)c1C` [Compound 13, N-[3-(4-{2-[(3-Chloro-phenyl)-methyl-amino]-pyrimidin-4-yl}-3-methyl-pyridin-2-ylamino)-propyl]-acetamide], for which the half-maximal inhibitory concentration (IC50) against CDK9/cyclinT1 and at CDK1/cyclinB was above 50 µM throughout.

Turning to `CC(=O)NCCCNc1nccc(-c2ccnc(Nc3cccc(CNC(C)=O)c3)n2)c1C` [Compound 15, N-[3-(4-{2-[3-(Acetylamino-methyl)-phenylamino]-pyrimidin-4-yl}-3-methyl-pyridin-2-ylamino)-propyl]-acetamide], the half-maximal inhibitory concentration (IC50) at CDK9/cyclinT1 is below 5 µM; on CDK1/cyclinB it was above 50 µM.

Consider `Cc1c(-c2ccnc(Nc3cccc(Cl)c3)n2)ccnc1NCCCO` [Compound 17, 3-{4-[2-(3-Chloro-phenylamino)-pyrimidin-4-yl]-3-methyl-pyridin-2-ylamino}-propan-1-ol], for which the IC50 against CDK9/cyclinT1 and at CDK1/cyclinB was below 5 µM in each case.

Take `CC(=O)OCCCNc1nccc(-c2ccnc(Nc3cccc(Cl)c3)n2)c1C` [Compound 19, Acetic acid 3-{4-[2-(3-chloro-phenylamino)-pyrimidin-4-yl]-3-methyl-pyridin-2-ylamino}-propyl ester]: the IC50 at CDK9/cyclinT1 is below 5 µM; at CDK1/cyclinB, 5 to 15 µM.

As for `Cc1c(-c2ccnc(Nc3cccc(Cl)c3)n2)ccnc1NCCC(=O)O` [Compound 20, 3-{4-[2-(3-Chloro-phenylamino)-pyrimidin-4-yl]-3-methyl-pyridin-2-ylamino}-propionic acid], the half-inhibitory concentration (IC50) is below 5 µM against CDK9/cyclinT1 and 5 to 15 µM on CDK1/cyclinB.

Take `Cc1c(-c2ccnc(Nc3cccc(Cl)c3)n2)ccnc1NCCCNc1ccc(CN)cc1` [Compound 27, N-(4-Aminomethyl-phenyl)-N′-{4-[2-(3-chloro-phenylamino)-pyrimidin-4-yl]-3-methyl-pyridin-2-yl}-propane-1,3-diamine]: the IC50 is below 5 µM against CDK9/cyclinT1 and 5 to 15 µM on CDK1/cyclinB.

As for `CC(=O)NCc1ccc(NCCCNc2nccc(-c3ccnc(Nc4cccc(Cl)c4)n3)c2C)cc1` [Compound 28, N-[4-(3-{4-[2-(3-Chloro-phenylamino)-pyrimidin-4-yl]-3-methyl-pyridin-2-ylamino}-propylamino)-benzyl]-acetamide], the IC50 on CDK9/cyclinT1 is below 5 µM; on CDK1/cyclinB, 15 to 50 µM.

Take `Cc1cnc(Nc2cccc(Cl)c2)nc1-c1ccnc(NCCCN)c1` [Compound 31, N-{4-[2-(3-Chloro-phenylamino)-5-methyl-pyrimidin-4-yl]-pyridin-2-yl}-propane-1,3-diamine]: the IC50 at CDK9/cyclinT1 and at CDK1/cyclinB was below 5 µM each time.

As to `Cc1cc(-c2ccnc(NCCCN)c2)nc(Nc2cccc(Cl)c2)n1` [Compound 33, N-{4-[2-(3-Chloro-phenylamino)-6-methyl-pyrimidin-4-yl]-pyridin-2-yl}-propane-1,3-diamine], the IC50 against CDK9/cyclinT1 was 15 to 50 µM; on CDK1/cyclinB, above 50 µM.

In the case of `CC(=O)NCCCNc1cc(-c2cc(C)nc(Nc3cccc(Cl)c3)n2)ccn1` [Compound 34, N-(3-{4-[2-(3-Chloro-phenylamino)-6-methyl-pyrimidin-4-yl]-pyridin-2-ylamino}-propyl)-acetamide], the IC50 at CDK9/cyclinT1 and on CDK1/cyclinB was below 5 µM each time.

In the case of `NCCCNc1cc2c(cn1)CCc1cnc(Nc3cccc(Cl)c3)nc1-2` [Compound 35, N-(3-Amino-propyl)-N-(3-chloro-phenyl)-9,10-dihydro-2,4,7-triaza-phenanthrene-3,6-diamine], the IC50 against CDK9/cyclinT1 and on CDK1/cyclinB was below 5 µM each time.

Consider `CC(=O)NCCCNc1cc2c(cn1)CCc1cnc(Nc3cccc(Cl)c3)nc1-2` [Compound 36, N-{3-[3-(3-Chloro-phenylamino)-9,10-dihydro-2,4,7-triaza-phenanthren-6-ylamino]-propyl}-acetamide], for which the IC50 on CDK9/cyclinT1 and on CDK1/cyclinB was below 5 µM throughout.

With `CC(=O)NCCCNc1nccc2c1CCc1cnc(Nc3cccc(Cl)c3)nc1-2` [Compound 38, N-{3-[3-(3-Chloro-phenylamino)-9,10-dihydro-2,4,7-triaza-phenanthren-8-ylamino]-propyl}-acetamide], the IC50 is below 5 µM against CDK9/cyclinT1 and 5 to 15 µM on CDK1/cyclinB.

Consider `Cc1cnc(NCCCN)cc1-c1ccnc(Nc2cccc(Cl)c2)n1` [Compound 39, N-{4-[2-(3-Chloro-phenylamino)-pyrimidin-4-yl]-5-methyl-pyridin-2-yl}-propane-1,3-diamine], for which the IC50 against CDK9/cyclinT1 and at CDK1/cyclinB was below 5 µM in each case.

Turning to `CC(=O)NCCCNc1cc(-c2ccnc(Nc3cccc(Cl)c3)n2)c(C)cn1` [Compound 40, N-(3-{4-[2-(3-Chloro-phenylamino)-pyrimidin-4-yl]-5-methyl-pyridin-2-ylamino}-propyl)-acetamide], the half-maximal inhibitory concentration (IC50) at CDK9/cyclinT1 was below 5 µM; on CDK1/cyclinB, 15 to 50 µM.

Regarding `Cc1cc(-c2ccnc(Nc3cccc(Cl)c3)n2)cc(NCCCN)n1` [Compound 41, N-{4-[2-(3-Chloro-phenylamino)-pyrimidin-4-yl]-6-methyl-pyridin-2-yl}-propane-1,3-diamine], the IC50 at CDK9/cyclinT1 and at CDK1/cyclinB was below 5 µM throughout.
